In ChEMBL document CHEMBL4627407, “Identification of a Potent Oridonin Analogue for Treatment of Triple-Negative Breast Cancer” (J Med Chem, 2020):
pIC50: −log10 of the molar value. The source made the active and inactive calls. The calls are words filed in the database; no cut-off is given here.

How the values were obtained:
HCC1806 [1] = test: Induction of apoptosis in human HCC1806 cells assessed as late apoptotic cells at 50 uM after 48 hrs by Annexin V-FITC/propidium iodide double staining based flow cytometry (reference value: 0.81%); type: functional
HCC1806 [2] = test: Induction of apoptosis in human HCC1806 cells assessed as early apoptotic cells at 100 uM after 48 hrs by Annexin V-FITC/propidium iodide double staining based flow cytometry (reference value: 2.16%); type: functional
HCC1806 [3] = test: Induction of cell death in human HCC1806 cells at 200 nM incubated for 72 hrs in presence of caspase inhibitor z-VAD by MTT assay; type: functional, cell-based
HCC1806 [4] = test: Antimigratory activity against human HCC1806 cells measured up to 48 hrs by phase contrast microscopic based scratch wound healing assay; type: functional, cell-based
HCC1806 [5] = test: Antitumor activity against human HCC1806 cells xenografted in iv dosed ICR mouse assessed as reduction in tumor volume administered once per day for 23 consecutive days and measured every 2 days; type: functional, organism-based
HCC1806 [6] = test: Inhibition of cell invasion in human HCC1806 cells at 100 to 200 nM incubated for 48 hrs by crystal violet staining based matrigel coated transwell assay; type: functional
HCC1806 [7] = test: Induction of cell cycle arrest in human HCC1806 cells assessed as accumulation at S phase at 100 nM after 48 hrs by propidium iodide staining based FACScan flow cytometry (reference value: 18.89%); type: functional
[8] = target: T1, M-phase inducer phosphatase 3 (Homo sapiens) (UniProt P30307); test: Inhibition of cdc25c in human HCC1806 cells assessed as increase in cdc25c phosphorylation at ser216 residue by western blot analysis; type: cell-based
T1 sequence (whole entry): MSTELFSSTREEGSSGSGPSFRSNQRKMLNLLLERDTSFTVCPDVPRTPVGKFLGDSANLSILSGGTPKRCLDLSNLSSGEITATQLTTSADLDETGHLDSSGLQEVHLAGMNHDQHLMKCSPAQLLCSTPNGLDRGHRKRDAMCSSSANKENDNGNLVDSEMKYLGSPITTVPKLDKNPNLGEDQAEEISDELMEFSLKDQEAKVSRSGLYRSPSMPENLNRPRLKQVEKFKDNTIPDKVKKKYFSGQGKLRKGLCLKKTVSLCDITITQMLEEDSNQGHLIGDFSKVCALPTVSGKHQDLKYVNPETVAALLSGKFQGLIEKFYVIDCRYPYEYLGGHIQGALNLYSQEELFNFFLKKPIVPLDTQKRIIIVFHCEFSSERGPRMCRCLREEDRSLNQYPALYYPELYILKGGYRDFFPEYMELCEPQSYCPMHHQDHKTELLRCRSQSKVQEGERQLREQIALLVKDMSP

MDA-MB-453 = test: Antiproliferative activity against human MDA-MB-453 cells after 72 hrs by MTT assay; type: functional, cell-based; details: MDA-MB-453, 72 h
HCC1806 [9] = test: Induction of apoptosis in human HCC1806 cells assessed as viable cells at 200 uM after 48 hrs by Annexin V-FITC/propidium iodide double staining based flow cytometry (reference value: 95.7%); type: functional; details: HCC1806, 48 h, read-out: Activity
HCC1806 [10] = test: Induction of apoptosis in human HCC1806 cells after 48 hrs by Annexin V-FITC/propidium iodide double staining based flow cytometry; type: functional, cell-based
HCC1806 [11] = test: Induction of apoptosis in human HCC1806 cells assessed as increase in Bad expression at 50 to 200 nM after 48 hrs by Western blot analysis; type: functional, cell-based
[12] = Inhibition of PI3K/Akt/mTOR signalling pathway in human HCC1806 cells assessed as reduction in phosphorylated mTOR expression at S2448 residue after 48 hrs by Western blot analysis; type: cell-based
MDA-MB-468 = test: Antiproliferative activity against human MDA-MB-468 cells after 72 hrs by MTT assay; type: functional, cell-based; details: MDA-MB-468, 72 h
HCC1806 [13] = test: Antimigratory activity in human HCC1806 cells assessed as reduction in integrin beta1 level after 48 hrs by Western blot analysis; type: functional, cell-based
SK-BR-3 = test: Antiproliferative activity against human SK-BR-3 cells after 72 hrs by MTT assay; type: functional, cell-based; details: SK-BR-3, 72 h
HCC1806 [14] = test: Induction of cell cycle arrest in human HCC1806 cells assessed as accumulation at S phase at 200 nM after 48 hrs by propidium iodide staining based FACScan flow cytometry (reference value: 18.89%); type: functional
HCC1806 [15] = test: Antiproliferative activity against human HCC1806 cells after 72 hrs by MTT assay; type: functional, cell-based; details: HCC1806, 72 h
HCC1806 [16] = test: Antitumor activity against human HCC1806 cells in ICR mouse assessed as reduction in tumor weight at 12.5 mg/kg, iv administered once per day for 23 consecutive days and measured every 2 days relative to control; type: functional; design: scale not given: the % may be the effect or the level left
HCC1806 [17] = test: Antitumor activity against human HCC1806 cells in ICR mouse assessed as increase in apoptosis in tumor at 12.5 to 25 mg/kg, iv administered once per day for 23 consecutive days by Ki67 staining-based immunohistochemical analysis; type: functional, organism-based
[18] = Toxicity in ICR mouse assessed as induction of morphological changes in kidney at 25 mg/kg, iv administered once per day for 23 consecutive days; type: organism-based; details: in vivo
HCC1806 [19] = test: Induction of apoptosis in human HCC1806 cells assessed as late apoptotic cells at 100 uM after 48 hrs by Annexin V-FITC/propidium iodide double staining based flow cytometry (reference value: 0.81%); type: functional
HCC1806 [20] = test: Antimigratory activity in human HCC1806 cells assessed as reduction in EGFR expression at 50 to 200 nM after 48 hrs by Western blot analysis; type: functional, cell-based
HCC1806 [21] = test: Induction of apoptosis in human HCC1806 cells assessed as early apoptotic cells at 200 uM after 48 hrs by Annexin V-FITC/propidium iodide double staining based flow cytometry (reference value: 2.16%); type: functional
HCC1806 [22] = test: Induction of apoptosis in human HCC1806 cells assessed as necrotic cells at 200 uM after 48 hrs by Annexin V-FITC/propidium iodide double staining based flow cytometry (reference value: 1.32%); type: functional
HCC1806 [23] = test: Induction of intracellular reactive oxygen species generation in human HCC1806 cells assessed as accumulation of DCFH2-DA positive cells at 200 nM incubated for 48 hrs by flow cytometeric analysis (reference value: 3.53%); type: functional
HCC1806 [24] = test: Induction of intracellular reactive oxygen species generation in human HCC1806 cells incubated for 48 hrs by DCFH2-DA staining based flow cytometeric analysis; type: functional, cell-based
HCC1806 [25] = test: Induction of cell cycle arrest in human HCC1806 cells assessed as downregulation of cdc2 expression by western blot analysis; type: functional, cell-based
HCC1806 [26] = test: Induction of apoptosis in human HCC1806 cells assessed as early apoptotic cells at 50 uM after 48 hrs by Annexin V-FITC/propidium iodide double staining based flow cytometry (reference value: 2.16%); type: functional
NCI/ADR-RES = test: Potency index, ratio of oridonin IC50 to compound IC50 for antiproliferative activity against human MCF7/ADR cells after 72 hrs by MTT assay; type: functional
HCC1806 [27] = test: Induction of cell cycle arrest in human HCC1806 cells assessed as downregulation of cyclin B1 expression by western blot analysis; type: functional, cell-based
HCC1806 [28] = test: Suppression of FAK expression in human HCC1806 cells at 50 to 200 nM after 48 hrs by Western blot assay; type: functional, cell-based

Compound: C=C1C(=O)[C@@]23C(=O)[C@@H]4OC[C@]5(C=CCC(C)(C)[C@@H]45)[C@@H]2CC[C@@H]1[C@H]3OC(=O)/C=C/c1ccncc1
- Activity (HCC1806 [1]): 2.43%
- Activity (HCC1806 [2]): 26.78%
- Activity (HCC1806 [3]): inactive
- Activity (HCC1806 [4]): Dose-dependent effect
- Activity (HCC1806 [5]): Dose-dependent effect
- inhibition (HCC1806 [6]): Active
- Activity (HCC1806 [7]): 19.13%
- inhibition [8]: Dose-dependent effect
- pIC50 (MDA-MB-453): 6.48
- viability at 200 µM (HCC1806 [9]): 50.4%
- Activity (HCC1806 [10]): Dose-dependent effect
- Activity (HCC1806 [11]): Active
- inhibition [12]: Dose-dependent effect
- pIC50 (MDA-MB-468): 6.35
- Activity (HCC1806 [13]): Dose-dependent effect
- pIC50 (SK-BR-3): 6.66
- Activity (HCC1806 [14]): 20.74%
- pIC50 (HCC1806 [15]): 6.74
- Activity (HCC1806 [16]): 67.3%
- Activity (HCC1806 [17]): Active
- Activity [18]: Non-Toxic
- Activity (HCC1806 [19]): 3.61%
- Activity (HCC1806 [20]): Active
- Activity (HCC1806 [21]): 22.49%
- Activity (HCC1806 [22]): 4.32%
- Activity (HCC1806 [23]): 45.87%
- Activity (HCC1806 [24]): Dose-dependent effect
- Activity (HCC1806 [25]): Dose-dependent effect
- Activity (HCC1806 [26]): 14.87%
- Ratio IC50 (NCI/ADR-RES): 20
- Activity (HCC1806 [27]): Dose-dependent effect
- inhibition (HCC1806 [28]): inactive
